# Experiment: Average particle diameter of preparation (Zetasizer Nano ZS)
# Type: physicochemical
# Details: Comparative Examples 1 to 8, prepared as Example 118 with apo-b siRNA
# From the text: Preparations were produced using the compounds obtained in Examples 1 to 117, as follows.
# APO-B siRNA was used as the nucleic acid. APO-B siRNA suppresses expression of an apolipoprotein-B (hereinafter, “apo-b”) gene and has a sense strand with the base sequence 5′-GmUCAmUCACACmUGAAmUACCAAmU-3′ (the sugars attached to the bases appended with m are 2′-O-methyl-substituted riboses), and an antisense strand with the base sequence 5′-[…]-3′ (the 5′-end is phosphorylated). The sense strand and the antisense strand were obtained from Nippon EGT, GeneDesign, Inc., Invitrogen or Hokkaido System Science Co., Ltd., and annealed to prepare the nucleic acid (hereinafter, “apo-b siRNA”).
# A solution comprising the constituent components was prepared by dissolving each of the weighed samples in 90 vol % ethanol in 8.947/1.059/5.708/13.697 mmol/L [compounds 1 to 117 obtained in Examples 1 to 117/sodium 1,2-dimyristoyl-sn-glycero-3-phosphoethanolamine-N-(methoxy(polyethylene glycol)-2000) (PEG-DMPE Na,N-(carbonylmethoxypolyethylene glycol 2000)-1,2-dimyristoyl-sn-glycero-3-phosphoethanolamine sodium salt, NOF Corporation)/distearoylphosphatidyl choline (DSPC, 1,2-distearoyl-sn-glycero-3-phosphocholine, NOF Corporation)/cholesterol (Avanti Polar Lipids)]. Separately, apo-b siRNA/distilled water (24 mg/mL) was diluted with a Tris-EDTA buffer (200 mM Tris-HCl, 20 mM EDTA, Invitrogen) and a 20 mM citric acid buffer (pH 5.0) to prepare a 1.5 mg/mL apo-b siRNA aqueous solution (2 mM Tris-EDTA/20 mM citric acid buffer, pH 5.0).
# The resulting lipid solution was heated to 37° C., and a 100-μL portion was transferred to a preparation container. The apo-b siRNA aqueous solution (100 μL) was then added thereto while being stirred. Then, a 20 mM citric acid buffer (containing 300 mM NaCl, pH 6.0; 200 μL) was added to the lipid nucleic acid mixed suspension (200 μL) while being stirred. The siRNA concentration was brought to 10 μM by dropping a Dulbecco phosphate buffer (DPBS, Invitrogen; 662 μL), and preparations (compositions comprising compounds 1 to 117 and the nucleic acid) were obtained.
# The average particle diameter of the complex between the cationic lipis and the nucleic acid in each preparation was measured with a particle diameter measurement device (Malvern; Zetasizer Nano ZS).
row,Structure (SMILES),average particle diameter of the complex between the cationic lipis and the nucleic acid in the preparation [nm]
1,"CCCCCCCC/C=C\CCCCCCCC(=O)O[C@@H]1CN(C)C[C@H]1OC(=O)CCCCCCC/C=C\CCCCCCCC [Compound A-4, (3R,4R)-1-Methylpyrrolidine-3,4-diyl di((Z)-octadec-9-enoate), reference compound]",131.1

# Same assay, conditions: average particle diameter of cationic lipid/nucleic acid complex; Example 118 preparation: compound/PEG-DMPE Na/DSPC/cholesterol with apo-b siRNA
row,Structure (SMILES),Particle diameter of Preparetion [nm]
1,"CCCCCCCC/C=C\CCCCCCCCOCCN(CCOCCCCCCCC/C=C\CCCCCCCC)C(=O)CCN(C)C [Compound 90, 3-(Dimethylamino)-N,N-bis(2-((Z)-octadec-9-enyloxy)ethyl)propanamido]",120.8
2,"CCCCCCCC/C=C\CCCCCCCCOCCN(CCOCCCCCCCC/C=C\CCCCCCCC)CCC(N)=O [Compound 84, 3-(bis(2-((2)-Octadec-9-enyloxy)ethyl)amino)propanamide]",120.2
3,"CCCCC/C=C\C/C=C\CCCCCCCCCCO[C@@H]1CNC[C@H]1OCCCCCCCCCC/C=C\C/C=C\CCCCC [Compound 8, (3R,4R)-3,4-bis((11Z,14Z)-Icos-11,14-dienyloxy)pyrrolidine]",143.8
4,"CCCCC/C=C\C/C=C\CCCCCCCCO[C@@H]1CN(CC(C)O)C[C@H]1OCCCCCCCC/C=C\C/C=C\CCCCC (stereo partly drawn) [Compound 54, 1-((3R,4R)-3,4-bis((9Z,12Z)-Octadec-9,12-dienyloxy)pyrrolidine-1-yl)propan-2-ol]",148.9
5,"CCCCC/C=C\C/C=C\CCCCCCCCO[C@@H]1CN(C(=O)CN(C)C)C[C@H]1OCCCCCCCC/C=C\C/C=C\CCCCC [Compound 25, (3R,4R)-1-(2-(Dimethylamino)acetyl)-3,4-bis((9Z,12Z)-octadec-9,12-dienyloxy)pyrrolidine]",126.0
6,"CCCCCCCC/C=C\CCCCCCCCOCCN(C)CCOCCCCCCCC/C=C\CCCCCCCC [Compound 33, N-Methyl-N,N-bis(2-((Z)-octadec-9-enyloxy)ethyl)amine]",152.1
7,"CCCCCCCC/C=C\CCCCCCCCOCCN(CCOCCCCCCCC/C=C\CCCCCCCC)C(=O)CCN [Compound 87, 3-Amino-N,N-bis(2-((Z)-octadec-9-enyloxy)ethyl)propanamido]",136.3
8,"CCCCC/C=C\C/C=C\CCCCCCCCO[C@@H]1CN(CC)C[C@H]1OCCCCCCCC/C=C\C/C=C\CCCCC [Compound 17, (3R,4R)-1-Ethyl-3,4-bis((9Z,12Z)-octadec-9,12-dienyloxy)pyrrolidine]",142.6
9,"CCCCCCCC/C=C\CCCCCCCC(=O)O[C@@H]1CN(C(=O)CN(C)C)C[C@H]1OC(=O)CCCCCCC/C=C\CCCCCCCC [Compound 27, (3R,4R)-1-(2-(Dimethylamino)acetyl)pyrrolidine-3,4-diyl di((Z)-octadec-9-enoate)]",135.2
10,"CCCCCC/C=C\CCCCCCCCO[C@@H]1CN(C)C[C@H]1OCCCCCCCC/C=C\CCCCCC [Compound 14, (3R,4R)-3,4-bis((Z)-Hexadec-9-enyloxy)-1-methylpyrrolidine]",139.3
11,"CCCCC/C=C\C/C=C\CCCCCCCC(=O)O[C@@H]1C[N+](C)(C)C[C@H]1OC(=O)CCCCCCC/C=C\C/C=C\CCCCC.[Cl-] [Compound 20, (3R,4R)-1,1-Dimethyl-3,4-bis((9Z,12Z)-octadec-9,12-dienoyloxy)pyrrolidinium chloride]",107.5
12,"CCCCCCCC/C=C\CCCCCCCCOCCN(CCOCCCCCCCC/C=C\CCCCCCCC)C(=O)CN [Compound 86, 2-Amino-N,N-bis(2-((Z)-octadec-9-enyloxy)ethyl)acetamide]",128.4
13,"CCCCCCCC/C=C\CCCCCCCC(=O)OCCN(CCOC(=O)CCCCCCC/C=C\CCCCCCCC)CC(O)CO (stereo not shown) [Compound 83, 3-(bis(2-((Z)-Octadec-9-enoyloxy)ethyl)amino)propan-1,2-diol]",169.1
14,"CCCCC/C=C\C/C=C\CCCCCCCCO[C@@H]1CNC[C@H]1OCCCCCCCC/C=C\C/C=C\CCCCC [Compound 1, (3R,4R)-3,4-bis((9Z,12Z)-Octadec-9,12-dienyloxy)pyrrolidine]",137.4
15,"CCCCC/C=C\C/C=C\CCCCCCCCO[C@@H]1CN(C(=O)CN)C[C@H]1OCCCCCCCC/C=C\C/C=C\CCCCC [Compound 61, (3R,4R)-1-(2-Aminoacetyl)-3,4-bis((9Z,12Z)-octadec-9,12-dienyloxy)pyrrolidine]",125.9
16,"CCCC/C=C\CCCCCCCCOCCNCCOCCCCCCCC/C=C\CCCC [Compound 68, bis(2-((Z)-Tetradec-9-enyloxy)ethyl)amine]",132.4
17,"CCCCCCCCCCCCCCCCCCOCCNCCOCCCCCCCCCCCCCCCCCC [Compound 71, bis(2-(Octadecyloxy)ethyl)amine]",148.4
18,"CCCCCC/C=C\CCCCCCCCCCO[C@@H]1CN(C)C[C@H]1OCCCCCCCCCC/C=C\CCCCCC [Compound 48, (3R,4R)-1-Methyl-3,4-bis((Z)-octadec-11-enyloxy)pyrrolidine]",135.0

# Other lines, results leading:
row,Particle diameter of Preparetion [nm],Structure (SMILES)
1,141.8,"CCCCC/C=C\C/C=C\CCCCCCCCCCOC[C@@H]1CNC[C@H]1COCCCCCCCCCC/C=C\C/C=C\CCCCC (relative stereo) [Compound 103, trans-3,4-bis(((11Z,14Z)-Icos-11,14-dienyloxy)methyl)pyrrolidine]"
2,154.1,"CCCCCCCC/C=C\CCCCCCCC(=O)OCCN(CCOC(=O)CCCCCCC/C=C\CCCCCCCC)C(=O)OCCCN(C)C [Compound 116, 3-(Dimethylamino)propyl bis(2-((Z)-1-oxooctadec-9-enyloxy)ethyl)carbamate]"
3,133.0,"CCCCCCCC/C=C\CCCCCCCC(=O)OCCN(CCOC(=O)CCCCCCC/C=C\CCCCCCCC)C(=O)[C@@H](N)CCCCN [Compound 97, (S)-2,6-Diamino-N,N-bis(2-((Z)-octadec-9-enoyloxy)ethyl)hexanamido]"
4,133.8,"CCCC/C=C\CCCCCCCCO[C@@H]1CNC[C@H]1OCCCCCCCC/C=C\CCCC [Compound 40, (3R,4R)-3,4-bis((Z)-Tetradec-9-enyloxy)pyrrolidine]"
5,103.4,"CCCCCCCC/C=C\CCCCCCCC(=O)OCC[N+](C)(C)CCOC(=O)CCCCCCC/C=C\CCCCCCCC.[Cl-] [Compound 81, N,N-diMethyl-N,N-bis(2-((Z)-octadec-9-enoyloxy)ethyl)aminium chloride]"
6,139.6,"CCCCC/C=C\C/C=C\CCCCCCCC(=O)O[C@@H]1CNC[C@H]1OC(=O)CCCCCCC/C=C\C/C=C\CCCCC [Compound 2, (3R,4R)-Pyrrolidine-3,4-diyl di((9Z,12Z)-octadec-9,12-dienoate)]"
7,146.4,"CCCCCCCC/C=C\CCCCCCCCO[C@@H]1CN(CC)C[C@H]1OCCCCCCCC/C=C\CCCCCCCC [Compound 18, (3R,4R)-1-Ethyl-3,4-bis((Z)-octadec-9-enyloxy)pyrrolidine]"
8,132.7,"CCCCCCCC/C=C\CCCCCCCC(=O)O[C@@H]1CN(C(=O)CCN(C)C)C[C@H]1OC(=O)CCCCCCC/C=C\CCCCCCCC [Compound 30, (3R,4R)-1-(3-(Dimethylamino)propanoyl)pyrrolidine-3,4-diyl di((Z)-octadec-9-enoate)]"
9,136.8,"CCCCCCCCCCCCCCOCCNCCOCCCCCCCCCCCCCC [Compound 69, bis(2-(Tetradecyloxy)ethyl)amine]"
10,150.2,"CCCCCCCCCCCCCCO[C@@H]1CN(C)C[C@H]1OCCCCCCCCCCCCCC [Compound 13, (3R,4R)-1-Methyl-3,4-bis(tetradecyloxy)pyrrolidine]"
11,141.5,"CCCCCCCC/C=C\CCCCCCCC(=O)OC[C@@H]1CNC[C@H]1COC(=O)CCCCCCC/C=C\CCCCCCCC (relative stereo) [Compound 104, trans-3,4-bis(((Z)-Octadec-9-enoyloxy)methyl)pyrrolidine]"
12,154.2,"CCCCC/C=C\C/C=C\CCCCCCCCOCCN(C)CCOCCCCCCCC/C=C\C/C=C\CCCCC [Compound 32, N-Methyl-N,N-bis(2-((9Z,12Z)-octadec-9,12-dienyloxy)ethyl)amine]"

# Source: US20170349532A1, “CATIONIC LIPID” (Kyowa Hakko Kirin Co., Ltd., priority 2011, published 2017)
